IC50 data for 20 molecules are collected here from patent publication US20240101548A1, “HYDROXAMATE COMPOUND, PREPARATION METHOD THEREFOR AND APPLICATION THEREOF” (SHENZHEN CHIPSCREEN BIOSCIENCES CO., LTD., priority 2020, published 2024).

Read-outs that look alike come from different tables or passages of the source.

Type in all cases: cell-based, human
Test [1] deals with IL-10-induced JAK1/TYK2 signal pathway. Put plainly: IL-10-induced JAK1/TYK2 signal pathway STAT3-Luc reporter gene assay in U2OS cells. The conditions noted are these: U2OS cells, STAT3-Luc reporter, IL-10 10 ng/mL, read-out: Half inhibition dose (IC50) on IL-10-induced JAK1/TYK2 signal pathway. A digest of the protocol: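 Luciferase read-out (560 nm) corrected by GFP signal (Ex485/Em520) gives IL-10 pathway activity, and IC50 is derived from inhibition rates. Cells were U2OS transfected with IL-10R1 plus STAT3-Luc reporter, pretreated 6 h with 0.1–300 nM compound, then stimulated 24 h with IL-10 at 10 ng/mL.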
A general note: Reporter assays use an easily measured gene product as a stand-in for the process of interest.

The subject of test [2] is IL-2-induced JAK1/JAK3 signal pathway. Put plainly: IL-2-induced proliferation of KHYG-1 cells (JAK1/JAK3 signal). The following applies: KHYG-1 cell proliferation, IL-2 10 ng/mL, 72 hours, read-out: Inhibition activity IC50 on IL-2-induced JAK1/JAK3 signal pathway. The gist of the method: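 Controls were wells lacking both compound and cytokine (0%) and compound-free IL-2 wells (100%). C50 was calculated from inhibition rates across doses.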

Test [3] has as its system EPO-induced JAK2 signal pathway. Put plainly: EPO-induced proliferation of UT-7 cells (JAK2 signal). The conditions noted are these: UT-7 cell proliferation, EPO 10 ng/mL, 72 hours, read-out: Inhibition activity IC50 on EPO-induced JAK2 signal pathway. The gist of the method:
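[…] was derived from inhibition rates across doses, scaled between wells lacking compound and cytokine (0) and EPO without compound (100), using alamarBlue fluorescence at Ex530/Em590. Compound (final 0-10000 nM) and 10 ng/mL EPO were given to UT-7 cells at 15000 per well for 72 h at 37° C.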

As to `CP(C)(=O)c1ccccc1Nc1cc(NC(=O)C2CC2)ncc1C(N)=O` [Example 93, 6-(cyclopropylcarboxamido)-4-((2-(dimethylphosphoryl)phenyl)amino)nicotinamide], the IC50 is 278 nM in test [1] (Homo sapiens, U2OS); > 10 µM in test [2] (Homo sapiens); > 10 µM in test [3] (Homo sapiens, UT7).
As for `C#Cc1ccc(Nc2cc(Nc3ccc(C4CC4)cn3)ncc2C(=O)NOCC)c(N(C)S(C)(=O)=O)c1` [Example 154, 6-((5-cyclopropylpyridin-2-yl)amino)-N-ethoxy-4-((4-ethynyl-2-(N-methylmethanesulfonamido)phenyl)amino)nicotinamide], the IC50 was 1.52 nM in test [1] (Homo sapiens, U2OS); > 10 µM in test [2] (Homo sapiens); > 10 µM in test [3] (Homo sapiens, UT7).
With `CONC(=O)c1cnc(NC(=O)C2CC2)cc1Nc1ccc(C)cc1N(C)S(C)(=O)=O` [Example 81, 6-(cyclopropylcarboxamido)-N-methoxy-4-((4-methyl-2-(N-methylmethanesulfonamido)phenyl)amino)nicotinamide], the IC50 in test [1] (Homo sapiens) is 1.5 nM; in test [2] (Homo sapiens), > 10 µM; in test [3] (Homo sapiens, UT7), > 10 µM.
In the case of `CONC(=O)c1cnc(Nc2cc(C)c(F)cn2)cc1Nc1ccccc1N(C)S(C)(=O)=O` [Example 44, 6-((5-fluoro-4-methylpyridin-2-yl)amino)-N-methoxy-4-((2-(N-methylmethanesulfonamido)phenyl)amino)nicotinamide], the IC50 in test [1] (Homo sapiens, U2OS) was 1.04 nM; in test [2] (Homo sapiens), > 10 µM; in test [3] (Homo sapiens, UT7) it was > 10 µM.
For `CONC(=O)c1cnc(NC(=O)C2CC2)cc1Nc1cccc(-n2cccn2)c1OC` [Example 41, 6-(cyclopropylcarboxamido)-N-methoxy-4-((2-methoxy-3-(1H-pyrazol-1-yl)phenyl)amino)nicotinamide], the IC50 in test [1] (Homo sapiens) is 1.7 nM; in test [2] (Homo sapiens) it was > 10 µM; in test [3] (Homo sapiens, UT7), > 10 µM.
On to `CCONC(=O)c1cnc(Nc2ccc(F)nc2)cc1Nc1ccc(C2CC2)cc1N(C)S(C)(=O)=O` [Example 237, 4-((4-cyclopropyl-2-(N-methylmethanesulfonamido)phenyl)amino)-N-ethoxy-6-((6-fluoropyridin-3-yl)amino)nicotinamide], for which the IC50 in test [1] (Homo sapiens, U2OS) was 0.395 nM; in test [2] (Homo sapiens), > 10 µM; in test [3] (Homo sapiens, UT7), > 10 µM.
Consider `CCONC(=O)c1cnc(Nc2cc(C)nc(C)n2)cc1Nc1ccc(C)c(F)c1N(C)S(C)(=O)=O` [Example 197], for which the IC50 in test [1] (Homo sapiens, U2OS) is 0.731 nM; in test [2] (Homo sapiens), > 10 µM; in test [3] (Homo sapiens, UT7), > 10 µM.
Regarding `C#Cc1cc(N(C)S(C)(=O)=O)c(Nc2cc(Nc3cc(C)nc(C)n3)ncc2C(=O)NOCC)cc1F` [Example 182], the IC50 in test [1] (Homo sapiens, U2OS) was 1.59 nM; in test [2] (Homo sapiens) it was > 10 µM; in test [3] (Homo sapiens, UT7), > 10 µM.
Consider `CCONC(=O)c1cnc(Nc2ccncn2)cc1Nc1cc(F)c(C(C)C)cc1N(C)S(C)(=O)=O` [Example 230, N-ethoxy-4-((5-fluoro-4-isopropyl-2-(N-methylmethanesulfonamido)phenyl)amino)-6-(pyrimidin-4-ylamino)nicotinamide], for which the IC50 in test [1] (Homo sapiens, U2OS) is 0.85 nM; in test [2] (Homo sapiens) it was > 10 µM; in test [3] (Homo sapiens, UT7) it was > 10 µM.
As to `CCONC(=O)c1cnc(NC(=O)C2CC2)cc1Nc1cc(F)c(C2CC2)cc1N(C)S(C)(=O)=O` [Example 97, 6-(cyclopropylcarboxamido)-4-((4-cyclopropyl-5-fluoro-2-(N-methylmethanesulfonamido)phenyl)amino)-N-ethoxy nicotinamide], the IC50 in test [1] (Homo sapiens, U2OS) is 1.33 nM; in test [2] (Homo sapiens), > 10 µM; in test [3] (Homo sapiens, UT7), > 10 µM.
As to `CONC(=O)c1cnc(Nc2ccc(F)cn2)cc1Nc1ccc(C2CC2)cc1N(C)S(C)(=O)=O` [Example 13, 4-((4-cyclopropyl-2-(N-methylmethanesulfonamido)phenyl)amino)-6-((5-fluoropyridin-2-yl)amino)-N-methoxy nicotinamide], the IC50 in test [1] (Homo sapiens, U2OS) was 1.1 nM; in test [2] (Homo sapiens) it was > 10 µM; in test [3] (Homo sapiens, UT7), > 10 µM.
On to `CCONC(=O)c1cnc(NC(=O)C2CC2)cc1Nc1cccc(-c2ncn(C)n2)c1OC` [Example 166, 6-(cyclopropylcarboxamido)-N-ethoxy-4-((2-methoxy-3-(1-methyl-1H-1,2,4-triazol-3-yl)phenyl)amino)nicotinamide], for which the IC50 in test [1] (Homo sapiens, U2OS) is 1.51 nM; in test [2] (Homo sapiens), > 10 µM; in test [3] (Homo sapiens, UT7), > 10 µM.
Regarding `CCONC(=O)c1cnc(Nc2cncc(F)c2)cc1Nc1ccc(C2CC2)cc1N(C)S(C)(=O)=O` [Example 236, 4-((4-cyclopropyl-2-(N-methylmethanesulfonamido)phenyl)amino)-N-ethoxy-6-((5-fluoropyridin-3-yl)amino)nicotinamide], the IC50 in test [1] (Homo sapiens, U2OS) was 0.587 nM; in test [2] (Homo sapiens), > 10 µM; in test [3] (Homo sapiens, UT7), > 10 µM.
`CCONC(=O)c1cnc(Nc2cccc(C)n2)cc1Nc1ccc(C2CC2)cc1N(C)S(C)(=O)=O` [Example 217, 4-((4-cyclopropyl-2-(N-methylmethanesulfonamido)phenyl)amino)-N-ethoxy-6-((6-methylpyridin-2-yl)amino)nicotinamide]: the IC50 was 1.05 nM in test [1], > 10 µM in test [2] and > 10 µM in test [3].
On to `CCONC(=O)c1cnc(Nc2cccc(C(F)(F)F)n2)cc1Nc1ccc(C2CC2)cc1N(C)S(C)(=O)=O` [Example 220, 4-((4-cyclopropyl-2-(N-methylmethanesulfonamido)phenyl)amino)-N-ethoxy-6-((6-(trifluoromethyl)pyridin-2-yl)amino)nicotinamide], for which the IC50 in test [1] (Homo sapiens, U2OS) was 1.32 nM; in test [2] (Homo sapiens), > 10 µM; in test [3] (Homo sapiens, UT7), > 10 µM.
Regarding `CONC(=O)c1cnc(NC(=O)C2CC2)cc1Nc1ccc(OCC2CC2)cc1N(C)S(C)(=O)=O` [Example 63, 6-(cyclopropylcarboxamido)-4-((4-(cyclopropylmethoxy)-2-(N-methylmethanesulfonamido)phenyl)amino)-N-methoxy nicotinamide], the IC50 was 0.865 nM in test [1] (Homo sapiens, U2OS); > 10 µM in test [2] (Homo sapiens); > 10 µM in test [3] (Homo sapiens, UT7).
For `C#Cc1ccc(Nc2cc(Nc3ccc(C#N)cn3)ncc2C(=O)NOCC)c(N(C)S(C)(=O)=O)c1` [Example 142, 6-(5-cyanopyridin-2-ylamino)-N-ethoxy-4-((4-ethynyl-2-(N-methylmethanesulfonamido)phenyl)amino)nicotinamide], the IC50 in test [1] (Homo sapiens, U2OS) is 0.41 nM; in test [2] (Homo sapiens), > 10 µM; in test [3] (Homo sapiens, UT7), > 10 µM.
`CONC(=O)c1cnc(Nc2ccc(C#N)cn2)cc1Nc1ccc(C2CC2)cc1N(C)S(C)(=O)=O` [Example 111, 4-((4-cyclopropyl-2-(N-methylmethanesulfonamido)phenyl)amino)-6-((5-cyanopyridin-2-yl)amino)-N-methoxy nicotinamide]: the IC50 is 1.09 nM in test [1] (Homo sapiens, U2OS); > 10 µM in test [2] (Homo sapiens); > 10 µM in test [3] (Homo sapiens, UT7).
Regarding `CONC(=O)c1cnc(Nc2ccc(F)cn2)cc1Nc1ccc(C)nc1N(C)S(C)(=O)=O` [Example 60], the IC50 was 1.15 nM in test [1] (Homo sapiens, U2OS); > 10 µM in test [2] (Homo sapiens); > 10 µM in test [3] (Homo sapiens, UT7).
On to `CCONC(=O)c1cnc(Nc2ccc(C#N)cn2)cc1Nc1ccc(Cl)cc1N(C)S(C)(=O)=O` [Example 114, 4-((4-chloro-2-(N-methylmethanesulfonamido)phenyl)amino)-N-ethoxy-6-((5-cyanopyridin-2-yl)amino)nicotinamide], for which the IC50 is 0.32 nM in test [1] (Homo sapiens, U2OS); > 10 µM in test [2] (Homo sapiens); > 10 µM in test [3] (Homo sapiens, UT7).
